{"source": "patent US7763615B2", "about": "“Ecteinascidin analogs for use as antitumour agents” (priority 2001, dated 2010)", "key": {"CYP3A4": {"molecular_target": "CYP3A4 (Homo sapiens, UniProt P08684)", "sequence (P08684 whole entry)": "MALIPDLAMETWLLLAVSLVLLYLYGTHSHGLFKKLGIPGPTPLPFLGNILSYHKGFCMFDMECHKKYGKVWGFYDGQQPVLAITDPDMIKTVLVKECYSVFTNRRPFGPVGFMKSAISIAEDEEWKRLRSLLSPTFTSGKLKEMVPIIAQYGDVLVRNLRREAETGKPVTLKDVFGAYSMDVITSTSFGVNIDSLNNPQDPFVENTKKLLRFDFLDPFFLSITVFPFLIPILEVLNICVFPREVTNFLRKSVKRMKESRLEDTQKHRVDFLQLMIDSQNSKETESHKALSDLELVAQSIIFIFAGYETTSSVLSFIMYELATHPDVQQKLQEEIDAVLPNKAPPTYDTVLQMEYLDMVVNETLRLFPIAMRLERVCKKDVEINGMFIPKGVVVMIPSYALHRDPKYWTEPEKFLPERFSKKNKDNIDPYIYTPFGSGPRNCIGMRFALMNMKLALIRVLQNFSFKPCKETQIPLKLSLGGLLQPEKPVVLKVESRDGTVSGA", "experiment": "in vitro", "details": "CYP3A4 (% inhibition)", "experimental": "For CYP3A4 inhibition assay, the compound were tested at 10 μM in duplicate with a 0.25% final concentration of both methanol and acetonitrile in presence of the fluorescent substrate BFC (50 μM). The conversion of the BFC (7-benzyloxy-4-trifluoromethylcoumarin) in HFC (7-hydroxy-4-trifluoromethylcoumarin) was determined spectro-fluormetry after incubation with the enzyme during 30 min at 37° C.\nFor both assays, the fluorescent intensity measured at t=0 is subtracted from that measured after the appropriate incubation time. The ratio of signal-to-noise is calculated by comparing the fluorescence in incubations containing the test compound to the control samples containing the same solvent vehicle. The percent of control activity is calculated and reported as percent inhibition."}, "(HEPG2)": {"test_system": "(HEPG2)", "details": "human, 24 h, 30 μM"}, "physchem [1]": {"experiment": "physchem", "details": "pH 7.4, log D n-Octanol-Dulbecco's PBS pH 7.4", "experimental": "The measurement of partition coefficient was evaluated based on a miniaturized shake-flask procedure. Buffer (Dulbecco's PBS, pH 7.40) was used as the aqueous phase. The tested compound was dissolved in DMSO, at the concentration of 100 μM. The final DMSO concentration (1%.) during the octanol-buffer partitioning are very low to avoid bias on the partitioning. The amount of compound in the buffer phase was determined by HPLC with photodiode array detection after an equilibration phase of 60 min. The amount of compound in the octanol phase is calculated by subtraction of the amount of compound in buffer from the total amount of compound, which is determined from a calibration sample.\nLog D is calculated as the Log10 of the amount of compound in the octanol phase divided by the amount of compound in the buffer phase. The effective range of the log D microassay is approximately −0.5 to +4.5."}, "SK-OV3": {"test_system": "SK-OV3", "experiment": "Inhibition of cells growth by colorimetric assay (SRB), SK-OV3", "format": "cell-based", "how_it_was_run": "(§1)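 Cells plated at 5×10^3 per well; 18 h later, test samples added across 10 to 10^−8 μg/ml; incubation continued 48 h at 37° C, 5% CO2. Cells then fixed with cold TCA, stained with SRB, dye solubilised in Tris, and optical density measured at 490 nm.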"}, "[2]": {"test_system": "L8, normal rat skeletal muscle cells", "details": "24 h", "experimental": "In order to assess the cytotoxicity of the drugs to normal cells, we used 96 well plates plated at a density of 5000 cells per well (except for the FDC-P1 which were plated at 12,000 cells per well) with normal cell lines (ATCC, Table 1) maintained as per the directions of the ATCC: AML-12, normal mouse liver cells; NRK-52E, normal rat kidney cells; L8, normal rat skeletal muscle cells; FDC-P1, normal mouse myelogeous stem cells; and H9c2 (2-1), normal rat cardiac muscle cells. The cells in each plate were permitted to settle overnight before adding the test drug.\nTo each well (100 μl medium) 10 μl of drug in media was added at varying concentrations (1×10-10-0.01 mg/ml final concentration) and further incubated overnight at 37° C. with 5% CO2. After 24 h the following assays were performed. All experiments were repeated at least 3 times and were assayed in duplicate.\nMTS assay (CellTiter 96 aqueous) was performed according to the manufacturer's (Promega) directions (for all cell types). Cell viability (mitochondrial activity) is determined via enzymatic conversion of the formazan substrate."}, "H-MEC-1": {"test_system": "H-MEC-1", "experiment": "Inhibition of cells growth by colorimetric assay (SRB), H-MEC-1", "format": "cell-based", "details": "Homo sapiens, HMEC-1, 48 h", "how_it_was_run": "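Absorbance at 490 nm of sulphorhodamine B bound by TCA-fixed cells gives the growth readout after 48 h continuous exposure to test samples (10 to 10^−8 μg/ml). Cells were seeded at 5×10^3 per well in RPMI 1640/10% FBS and allowed 18 h to attach first.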"}, "physchem [3]": {"experiment": "physchem", "details": "pH 7.4, aqueous buffer, Solubility Dulbecco's PBS pH 7.4"}, "LNCAP": {"test_system": "LNCAP", "experiment": "cells", "format": "cell-based", "details": "Homo sapiens, LNCaP, 48 h", "how_it_was_run": "as §1"}, "A549": {"test_system": "A549", "experiment": "cells", "format": "cell-based", "details": "Homo sapiens, A549, 48 h", "how_it_was_run": "as §1"}, "DU145": {"test_system": "DU145", "experiment": "cells", "format": "cell-based", "details": "Homo sapiens, DU-145, 48 h", "how_it_was_run": "as §1"}, "K562": {"test_system": "K562", "experiment": "cells", "format": "cell-based", "details": "Homo sapiens, K562, 48 h", "how_it_was_run": "as §1"}, "HT29": {"test_system": "HT29", "experiment": "cells", "format": "cell-based", "details": "Homo sapiens, HT-29, 48 h", "how_it_was_run": "as §1"}, "SK-BR3": {"test_system": "SK-BR3", "experiment": "cells", "format": "cell-based", "details": "Homo sapiens, SK-BR-3, 48 h", "how_it_was_run": "as §1"}, "PANC-1": {"test_system": "PANC-1", "experiment": "cells", "format": "cell-based", "details": "Homo sapiens, PANC-1, 48 h", "how_it_was_run": "as §1"}, "IGROV-ET": {"test_system": "IGROV-ET", "experiment": "cells", "format": "cell-based", "details": "Homo sapiens, 48 h", "how_it_was_run": "as §1"}, "LOVO-DOX": {"test_system": "LOVO-DOX", "experiment": "cells", "format": "cell-based", "details": "Homo sapiens, 48 h", "how_it_was_run": "as §1"}, "MEL-28": {"test_system": "MEL-28", "experiment": "cells", "format": "cell-based", "details": "Homo sapiens, SK-MEL-28, 48 h", "how_it_was_run": "as §1"}, "LOVO": {"test_system": "LOVO", "experiment": "cells", "format": "cell-based", "details": "Homo sapiens, LoVo, 48 h", "how_it_was_run": "as §1"}, "IGROV": {"test_system": "IGROV", "experiment": "cells", "format": "cell-based", "details": "Homo sapiens, 48 h", "how_it_was_run": "as §1"}, "CYP2D6": {"molecular_target": "CYP2D6 (Homo sapiens, UniProt P10635)", "sequence (P10635 whole entry)": "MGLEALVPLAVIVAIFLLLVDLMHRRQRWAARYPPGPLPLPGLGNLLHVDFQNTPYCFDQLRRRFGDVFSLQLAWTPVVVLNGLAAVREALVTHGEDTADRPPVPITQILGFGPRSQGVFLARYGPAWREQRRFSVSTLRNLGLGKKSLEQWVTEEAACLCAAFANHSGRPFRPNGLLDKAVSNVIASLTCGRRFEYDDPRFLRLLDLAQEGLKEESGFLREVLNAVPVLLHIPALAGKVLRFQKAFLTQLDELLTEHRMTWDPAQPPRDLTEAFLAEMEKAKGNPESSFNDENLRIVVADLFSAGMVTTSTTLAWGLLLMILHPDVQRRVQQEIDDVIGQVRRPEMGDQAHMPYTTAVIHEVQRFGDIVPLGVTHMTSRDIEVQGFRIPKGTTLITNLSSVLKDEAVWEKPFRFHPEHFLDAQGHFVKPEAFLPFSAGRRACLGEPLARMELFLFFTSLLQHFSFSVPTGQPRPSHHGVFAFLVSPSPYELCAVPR", "experiment": "in vitro", "details": "CYP2D6 (% inhibition)"}, "[4]": {"details": "s9, 60 min, 1 μM"}, "[5]": {"test_system": "FDC-P1, normal mouse myelogeous stem cells", "details": "24 h"}, "[6]": {"details": "H-MEC-1, 48 hours exposure, SRB"}, "[7]": {"details": "IGROV-ET, 48 hours exposure, SRB"}, "[8]": {"details": "LOVO-DOX, 48 hours exposure, SRB"}}, "data": [{"smiles": "COc1c(C)cc2c(c1O)[C@@H]1C3[C@@H]4SC[C@]5(NCCc6c5[nH]c5c(C)cccc65)C(=O)COC[C@@H](c5c6c(c(C)c(OC(C)=O)c54)OCO6)N3[C@@H](O)[C@H](C2)N1C", "note": "(some centres unmarked) [Compound 36]", "values": [{"measurement": "inhibition at 30 min, 10 µM", "setting": "CYP3A4", "result": 78, "unit": "%"}, {"measurement": "Cell Viability (% inhibition)", "setting": "(HEPG2)", "result": 33, "unit": "% inhibition"}, {"measurement": "logD at 60 min", "setting": "physchem [1]", "result": "> 4.4"}, {"measurement": "GI50", "setting": "SK-OV3; Homo sapiens, SK-OV-3, 48 h, SK-OV3, 48 hours exposure, SRB", "result": 50.7, "unit": "nM"}, {"measurement": "CC50", "setting": "SK-OV3; Homo sapiens, SK-OV-3, 48 h, read-out: LC50, SK-OV3, 48 hours exposure, SRB", "result": 13000, "unit": "nM"}, {"measurement": "TGI", "setting": "SK-OV3; SK-OV3, 48 hours exposure, SRB", "result": "2.05E−07", "unit": "Molar"}, {"measurement": "Skeletal", "setting": "[2]", "result": "2.71E−08"}, {"measurement": "GI50", "setting": "H-MEC-1; [6]", "result": 84.3, "unit": "nM"}, {"measurement": "IC (TGI)", "setting": "H-MEC-1; [6]", "result": 783, "unit": "nM"}, {"measurement": "CC50", "setting": "H-MEC-1; read-out: LC50, H-MEC-1, 48 hours exposure, SRB", "result": 13000, "unit": "nM"}, {"measurement": "solubility", "setting": "physchem [3]", "result": 26, "unit": "µM"}, {"measurement": "GI50", "setting": "LNCAP; 48 hours exposure, SRB", "result": 6.14, "unit": "nM"}, {"measurement": "IC (TGI)", "setting": "LNCAP; 48 hours exposure, SRB", "result": 9.48, "unit": "nM"}, {"measurement": "CC50", "setting": "LNCAP; read-out: LC50, LNCAP, 48 hours exposure, SRB", "result": 25.1, "unit": "nM"}, {"measurement": "GI50", "setting": "A549; A549, 48 hours exposure, SRB, read-out: GI50", "result": 28.4, "unit": "nM"}, {"measurement": "IC (TGI)", "setting": "A549; A549, 48 hours exposure, SRB, read-out: TGI", "result": 50.7, "unit": "nM"}, {"measurement": "CC50", "setting": "A549; read-out: LC50, A549, 48 hours exposure, SRB", "result": 90.9, "unit": "nM"}, {"measurement": "GI50", "setting": "DU145; DU145, 48 hours exposure, SRB", "result": 5.41, "unit": "nM"}, {"measurement": "IC (TGI)", "setting": "DU145; DU145, 48 hours exposure, SRB", "result": 9.39, "unit": "nM"}, {"measurement": "CC50", "setting": "DU145; read-out: LC50, DU145, 48 hours exposure, SRB", "result": 13000, "unit": "nM"}, {"measurement": "GI50", "setting": "K562; K562, 48 hours exposure, SRB", "result": 6.15, "unit": "nM"}, {"measurement": "IC (TGI)", "setting": "K562; K562, 48 hours exposure, SRB", "result": 9.92, "unit": "nM"}, {"measurement": "CC50", "setting": "K562; read-out: LC50, K562, 48 hours exposure, SRB", "result": 109, "unit": "nM"}, {"measurement": "GI50", "setting": "HT29; HT29, 48 hours exposure, SRB", "result": 61.8, "unit": "nM"}, {"measurement": "IC (TGI)", "setting": "HT29; HT29, 48 hours exposure, SRB", "result": 187, "unit": "nM"}, {"measurement": "CC50", "setting": "HT29; read-out: LC50, HT29, 48 hours exposure, SRB", "result": 13000, "unit": "nM"}, {"measurement": "GI50", "setting": "SK-BR3; SK-BR3, 48 hours exposure, SRB", "result": 11.8, "unit": "nM"}, {"measurement": "IC (TGI)", "setting": "SK-BR3; SK-BR3, 48 hours exposure, SRB", "result": 32, "unit": "nM"}, {"measurement": "CC50", "setting": "SK-BR3; read-out: LC50, SK-BR3, 48 hours exposure, SRB", "result": 86.4, "unit": "nM"}, {"measurement": "GI50", "setting": "PANC-1; PANC-1, 48 hours exposure, SRB", "result": 42.1, "unit": "nM"}, {"measurement": "IC (TGI)", "setting": "PANC-1; PANC-1, 48 hours exposure, SRB", "result": 104, "unit": "nM"}, {"measurement": "CC50", "setting": "PANC-1; read-out: LC50, PANC-1, 48 hours exposure, SRB", "result": 13000, "unit": "nM"}, {"measurement": "GI50", "setting": "IGROV-ET; [7]", "result": 50.3, "unit": "nM"}, {"measurement": "IC (TGI)", "setting": "IGROV-ET; [7]", "result": 103, "unit": "nM"}, {"measurement": "CC50", "setting": "IGROV-ET; read-out: LC50, IGROV-ET, 48 hours exposure, SRB", "result": 130, "unit": "nM"}, {"measurement": "GI50", "setting": "LOVO-DOX; [8]", "result": 70.4, "unit": "nM"}, {"measurement": "IC (TGI)", "setting": "LOVO-DOX; [8]", "result": 977, "unit": "nM"}, {"measurement": "CC50", "setting": "LOVO-DOX; read-out: LC50, LOVO-DOX, 48 hours exposure, SRB", "result": 13000, "unit": "nM"}, {"measurement": "GI50", "setting": "MEL-28; MEL-28, 48 hours exposure, SRB", "result": 2.16, "unit": "nM"}, {"measurement": "IC (TGI)", "setting": "MEL-28; MEL-28, 48 hours exposure, SRB", "result": 5.23, "unit": "nM"}, {"measurement": "CC50", "setting": "MEL-28; read-out: LC50, MEL-28, 48 hours exposure, SRB", "result": 12.6, "unit": "nM"}, {"measurement": "GI50", "setting": "LOVO; 48 hours exposure, SRB", "result": 27.3, "unit": "nM"}, {"measurement": "IC (TGI)", "setting": "LOVO; 48 hours exposure, SRB", "result": 54.6, "unit": "nM"}, {"measurement": "CC50", "setting": "LOVO; read-out: LC50, LOVO, 48 hours exposure, SRB", "result": 109, "unit": "nM"}, {"measurement": "GI50", "setting": "IGROV; 48 hours exposure, SRB", "result": 3.72, "unit": "nM"}, {"measurement": "IC (TGI)", "setting": "IGROV; 48 hours exposure, SRB", "result": 7.21, "unit": "nM"}, {"measurement": "CC50", "setting": "IGROV; read-out: LC50, IGROV, 48 hours exposure, SRB", "result": 27.1, "unit": "nM"}, {"measurement": "inhibition at 450 min, 10 µM", "setting": "CYP2D6", "result": 15, "unit": "%"}, {"measurement": "Human Liver S9 Metabolic Stability (% remaining)", "setting": "[4]", "result": 2, "unit": "% remaining"}, {"measurement": "Myelo", "setting": "[5]", "result": "2.05E−07"}]}]}
